The source of these data is patent US9605078B2, “Pictet-Spengler ligation for protein chemical modification” (THE REGENTS OF THE UNIVERSITY OF CALIFORNIA, priority 2012, dated 2017).

A short description of this data set: Small molecule hydrolysis of model oxime and oxacarboline, followed by liquid chromatography. The class given is physicochemical. The settings on record: 1 μM, buffered solutions at pH 4.5 or 5.0, room temperature, over two days. Here is the method: Small molecule hydrolysis: Hydrolysis solutions contained 1 μM 5a or 5b, 25 μM phenylalanine as an internal standard, and 5 mM sodium acetate at the appropriate pH. The solutions were incubated at room temperature and 50 μL aliquots were repeatedly analyzed by liquid chromatography on an Agilent 1200 instrument using an Agilent Poroshell 120 EC-C18 reverse phase column (4.6×50 mm) with a solvent flow rate of 0.4 mL/min. The following gradient was employed (time (min), % MeCN in H2O with 0.1% TFA): 0, 5; 10, 95; 12, 95; 14, 5; 19, 5. The time of the first injection for each solution was assigned as t=0. Integrals of the absorption peaks for 5a and 5b at 440 nm were normalized against the phenylalanine peak for each injection.

Turning to `O=C(NCCC=NOCc1ccccc1)c1ccc(-c2c3ccc(=O)cc-3oc3cc(O)ccc23)c(C(=O)O)c1` (racemic) [Compound 5a, 5-((3-((Benzyloxy)imino)propyl)carbamoyl)-2-(6-hydroxy-3-oxo-3H-xanthen-9-yl)benzoic acid], the “hydrolysis of conjugate (liquid chromatography)” value is listed as “majority of oxime 5a hydrolyzed”.
Consider `CN1OCc2c(c3ccccc3n2CCC(=O)O)C1CCNC(=O)c1ccc(-c2c3ccc(=O)cc-3oc3cc(O)ccc23)c(C(=O)O)c1` (centres unmarked) [Compound 5b, 5-((2-(5-(2-Carboxyethyl)-2-methyl-1,2,4,5-tetrahydro-[1,2]oxazino [5,4-b]indol-1-yl)ethyl)carbamoyl)-2-(6-hydroxy-3-oxo-3H-xanthen-9-yl)benzoic acid], for which the “conjugate remained intact (liquid chromatography)” value was “over 90%”.
